The target of one experiment is T1, recombinant human MER (Homo sapiens, UniProt Q12866).
T1 construct: purchased Invitrogen
T1 sequence (Q12866 21-999): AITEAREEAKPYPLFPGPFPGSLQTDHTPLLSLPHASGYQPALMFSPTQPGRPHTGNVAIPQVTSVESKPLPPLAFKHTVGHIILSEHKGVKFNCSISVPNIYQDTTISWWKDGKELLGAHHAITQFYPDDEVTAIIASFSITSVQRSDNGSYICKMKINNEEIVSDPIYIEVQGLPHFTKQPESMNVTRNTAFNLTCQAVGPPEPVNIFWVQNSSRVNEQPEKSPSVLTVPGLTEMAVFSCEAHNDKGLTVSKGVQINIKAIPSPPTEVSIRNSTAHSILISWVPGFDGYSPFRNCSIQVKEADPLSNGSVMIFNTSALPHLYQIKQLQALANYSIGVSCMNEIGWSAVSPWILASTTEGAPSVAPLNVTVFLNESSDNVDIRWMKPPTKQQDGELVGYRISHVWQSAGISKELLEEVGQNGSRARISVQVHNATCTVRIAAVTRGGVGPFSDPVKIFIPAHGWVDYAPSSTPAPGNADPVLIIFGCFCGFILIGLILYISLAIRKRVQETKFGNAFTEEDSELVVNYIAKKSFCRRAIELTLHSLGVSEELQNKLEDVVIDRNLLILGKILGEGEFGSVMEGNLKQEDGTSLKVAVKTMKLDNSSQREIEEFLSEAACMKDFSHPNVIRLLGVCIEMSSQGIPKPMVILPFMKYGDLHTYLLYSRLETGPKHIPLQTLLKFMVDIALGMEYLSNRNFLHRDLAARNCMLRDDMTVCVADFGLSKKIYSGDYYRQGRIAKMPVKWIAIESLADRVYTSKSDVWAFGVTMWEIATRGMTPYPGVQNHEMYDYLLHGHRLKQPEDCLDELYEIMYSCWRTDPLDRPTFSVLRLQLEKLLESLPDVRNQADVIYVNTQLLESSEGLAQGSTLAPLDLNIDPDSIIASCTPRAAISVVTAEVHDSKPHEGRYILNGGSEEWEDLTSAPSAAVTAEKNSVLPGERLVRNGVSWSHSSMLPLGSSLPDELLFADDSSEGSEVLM
Put plainly: HTRF KinEASE-TK biochemical potency, MER. The note with it: 1 nM MER, 700 μM ATP. The protocol:
Purified recombinant human AXL, TYRO3 and MER proteins were purchased from Invitrogen™. 10 nM AXL, 2 nM TYRO3 or MER were incubated with varying concentrations of compounds in 50 mM HEPES, pH 7.4, 10 mM MgCl2, 0.01% BSA, 1 mM DTT and 2% DMSO in a total volume of 20 μl in a 384-well microplate (Corning™ #3640) at RT for 1 h. The AXL, TYRO3 and MER enzymatic reaction was initiated by transferring 10 μl of enzyme and compound mixture into 10 μl of 1.6 μM TK Substrate-biotin (HTRF® KinEASE-TK kit, Cisbio) and 1400 μM ATP pre-incubated in 50 mM HEPES, pH 7.4, 10 mM MgCl2, 0.01% BSA, 1 mM DTT in a 384-well microplate (Corning™ #3640) at RT, giving the final reaction conditions: 5 nM AXL, 1 nM TYRO3 or MER, 800 nM TK Substrate-biotin and 700 μM ATP in 50 mM HEPES, pH 7.4, 10 mM MgCl2, 0.01% BSA, 1 mM DTT and 1% DMSO with varying concentrations of compounds. Following 2 h incubation at RT, the AXL, TYRO3 and MER enzymatic reaction was stopped by transfer of 10 μl of reaction into 10 μl of detection mix (400 nM Streptavidin-XL665, 200-fold dilution TK Antibody-Cryptate and detection buffer, HTRF® KinEASE-TK kit, Cisbio) in a white 384-well microplate (Perkin Elmer, OptiPlate 384). After 1 h incubation at RT, the plate was put into a plate reader (Evision) to read at 665/620 nm (acceptor/donor) for HTRF. The value of the DMSO blank (MIN inhibition=100% activity) was used as a negative control. The positive control was established by adding 5 μl of enzyme and DMSO mixture into 10 μl of detection mix followed by addition of 5 μl of TK Substrate-biotin and ATP mixture (MAX inhibition=0% activity). To calculate the percent activity, Equation 1 was used. Ratio665/620 is the value at a given compound concentration: […]

A further experiment concerns the target T2, recombinant human TYRO3 (Homo sapiens, UniProt Q06418).
T2 construct: purchased Invitrogen
T2 sequence (Q06418 41-890): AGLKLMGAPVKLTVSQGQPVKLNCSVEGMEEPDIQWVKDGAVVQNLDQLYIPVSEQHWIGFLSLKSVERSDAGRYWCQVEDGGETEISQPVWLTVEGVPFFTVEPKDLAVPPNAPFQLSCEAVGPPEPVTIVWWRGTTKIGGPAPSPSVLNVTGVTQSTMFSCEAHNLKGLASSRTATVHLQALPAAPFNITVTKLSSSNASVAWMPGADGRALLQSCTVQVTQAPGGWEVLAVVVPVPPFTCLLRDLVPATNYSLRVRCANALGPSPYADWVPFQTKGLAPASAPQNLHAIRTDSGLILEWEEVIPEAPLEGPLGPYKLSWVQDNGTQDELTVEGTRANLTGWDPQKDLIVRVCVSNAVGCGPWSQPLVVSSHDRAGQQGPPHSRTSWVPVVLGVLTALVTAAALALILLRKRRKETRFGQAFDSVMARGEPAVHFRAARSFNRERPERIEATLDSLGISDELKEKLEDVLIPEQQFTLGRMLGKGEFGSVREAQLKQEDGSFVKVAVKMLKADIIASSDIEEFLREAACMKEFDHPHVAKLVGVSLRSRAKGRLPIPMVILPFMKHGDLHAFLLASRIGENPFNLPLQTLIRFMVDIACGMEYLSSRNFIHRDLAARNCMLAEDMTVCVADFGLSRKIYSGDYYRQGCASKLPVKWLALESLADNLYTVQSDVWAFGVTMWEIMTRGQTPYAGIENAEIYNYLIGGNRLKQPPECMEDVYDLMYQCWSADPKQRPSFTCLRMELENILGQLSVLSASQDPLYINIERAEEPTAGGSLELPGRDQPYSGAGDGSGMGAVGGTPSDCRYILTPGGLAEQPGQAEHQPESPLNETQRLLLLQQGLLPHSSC
Put plainly: HTRF KinEASE-TK biochemical potency, TYRO3. The note with it: 1 nM TYRO3, 700 μM ATP. The method in brief:
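Enzyme preincubated with compound 1 h at RT; final 5 nM AXL or 1 nM TYRO3/MER, 800 nM TK substrate-biotin, 700 μM ATP, HEPES pH 7.4, MgCl2, 1% DMSO, 2 h at RT. HTRF 665/620 ratio read after streptavidin-XL665/cryptate antibody detection; percent activity relative to DMSO and pre-stopped controls.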
A general note: Time-resolved FRET reads energy transfer from a long-lived donor to a nearby acceptor.

Consider `CC1(O)CCOc2cc(-c3n[nH]c4ncc(-c5ccc6c(c5)CC[C@@H](N5CCCC5)CC6)cc34)ccc21` (stereo partly drawn) [Example 31, 4-Methyl-7-{5-[(7S)-7-(pyrrolidin-1-yl)-6,7,8,9-tetrahydro-5H-benzo[7]annulen-2-yl]-1H-pyrazolo[3,4-b]pyridin-3-yl}-3,4-dihydro-2H-1-benzopyran-4-ol], for which the IC50 (usually the concentration that gives 50% inhibition) at recombinant human MER was 100 to 1000 nM; at recombinant human TYRO3, below 100 nM.

Turning to `CC1(C)NS(=O)(=O)c2cc(-c3n[nH]c4ncc(-c5ccc6c(c5)CCC(N5CCCC5)CC6)cc34)ccc21` (stereo not drawn) [Example 32, 3,3-Dimethyl-6-{5-[7-(pyrrolidin-1-yl)-6,7,8,9-tetrahydro-5H-benzo[7]annulen-2-yl]-1H-pyrazolo[3,4-b]pyridin-3-yl}-2,3-dihydro-1λ^6,2-benzothiazole-1,1-dione], the IC50 at recombinant human MER and at recombinant human TYRO3 was below 100 nM in each case.

On to `C[C@@H]1CCCN1C1CCc2ccc(-c3cnc4[nH]nc(-c5ccc6c(c5)S(=O)(=O)NC6(C)C)c4c3)cc2CC1` (stereo partly drawn) [Example 33, 3,3-Dimethyl-6-(5-{7-[(2R)-2-methylpyrrolidin-1-yl]-6,7,8,9-tetrahydro-5H-benzo[7]annulen-2-yl}-1H-pyrazolo[3,4-b]pyridin-3-yl)-2,3-dihydro-1λ^6,2-benzothiazole-1,1-dione], for which the 50% inhibitory concentration (IC50) at recombinant human MER and at recombinant human TYRO3 was below 100 nM throughout.

For `CC1(C)NS(=O)(=O)c2cc(-c3n[nH]c4ncc(-c5ccc6c(c5)CCC(N5CCC[C@@H]5CO)CC6)cc34)ccc21` (stereo partly drawn) [Example 34, 6-(5-{7-[(2R)-2-(Hydroxymethyl)pyrrolidin-1-yl]-6,7,8,9-tetrahydro-5H-benzo[7]annulen-2-yl}-1H-pyrazolo[3,4-b]pyridin-3-yl)-3,3-dimethyl-2,3-dihydro-1λ^6,2-benzothiazole-1,1-dione], the IC50 at recombinant human MER and on recombinant human TYRO3 was below 100 nM throughout.

As to `CC1(C)COc2cc(-c3n[nH]c4ncc(-c5ccc6c(c5)CCC(N5CCCC5)CC6)cc34)ccc2C(=O)N1` (stereo not drawn) [Example 35, 3,3-Dimethyl-8-{5-[7-(pyrrolidin-1-yl)-6,7,8,9-tetrahydro-5H-benzo[7]annulen-2-yl]-1H-pyrazolo[3,4-b]pyridin-3-yl}-2,3,4,5-tetrahydro-1,4-benzoxazepin-5-one], the IC50 on recombinant human MER and at recombinant human TYRO3 was below 100 nM in each case.

For the compound `C[C@@H]1CCCN1C1CCc2ccc(-c3cnc4[nH]nc(-c5ccc6c(c5)OCC5(CC5)NC6=O)c4c3)cc2CC1` (stereo partly drawn) [Example 36, 8-(5-{7-[(2R)-2-Methylpyrrolidin-1-yl]-6,7,8,9-tetrahydro-5H-benzo[7]annulen-2-yl}-1H-pyrazolo[3,4-b]pyridin-3-yl)-4,5-dihydro-2H-spiro[1,4-benzoxazepine-3,1′-cyclopropan]-5-one], the IC50 on recombinant human MER and on recombinant human TYRO3 was below 100 nM throughout.

For `C[C@@H]1CCCN1C1CCc2ccc(-c3cnc4[nH]nc(-c5ccc6c(c5)OCC5(CCC5)NC6=O)c4c3)cc2CC1` (stereo partly drawn) [Example 37, 8-(5-{7-[(2R)-2-Methylpyrrolidin-1-yl]-6,7,8,9-tetrahydro-5H-benzo[7]annulen-2-yl}-1H-pyrazolo[3,4-b]pyridin-3-yl)-4,5-dihydro-2H-spiro[1,4-benzoxazepine-3,1′-cyclobutan]-5-one], the IC50 on recombinant human MER and at recombinant human TYRO3 was below 100 nM each time.

For `C[C@@H]1CCCN1C1CCc2ccc(-c3cnc4[nH]nc(-c5ccc6c(c5)C(=O)NC6(C)C)c4c3)cc2CC1` (stereo partly drawn) [Example 38, 3,3-Dimethyl-6-(5-{7-[(2R)-2-methylpyrrolidin-1-yl]-6,7,8,9-tetrahydro-5H-benzo[7]annulen-2-yl}-1H-pyrazolo[3,4-b]pyridin-3-yl)-2,3-dihydro-1H-isoindol-1-one], the figures for the IC50 on recombinant human MER and on recombinant human TYRO3 were 100 to 1000 nM and below 100 nM, respectively.

Turning to `C[C@H]1CCCN1C1Cc2ccc(-c3cnc4[nH]nc(-c5ccc6c(c5)OCC(C)(C)NC6=O)c4c3)cc2C1` (stereo partly drawn) [Example 39, 3,3-Dimethyl-8-(5-{2-[(2S)-2-methylpyrrolidin-1-yl]-2,3-dihydro-1H-inden-5-yl}-1H-pyrazolo[3,4-b]pyridin-3-yl)-2,3,4,5-tetrahydro-1,4-benzoxazepin-5-one], the figures for the half-inhibitory concentration (IC50) on recombinant human MER and at recombinant human TYRO3 were 100 to 1000 nM and below 100 nM, respectively.

With `Cc1cc2c(cc1-c1n[nH]c3ncc(-c4ccc5c(c4)CCC(N4CCC[C@H]4C)CC5)cc13)OCCNC2=O` (stereo partly drawn) [Example 40, 7-Methyl-8-(5-{7-[(2R)-2-methylpyrrolidin-1-yl]-6,7,8,9-tetrahydro-5H-benzo[7]annulen-2-yl}-1H-pyrazolo[3,4-b]pyridin-3-yl)-2,3,4,5-tetrahydro-1,4-benzoxazepin-5-one], the IC50 is 100 to 1000 nM at recombinant human MER and below 100 nM on recombinant human TYRO3.

For the compound `Cc1c(-c2n[nH]c3ncc(-c4ccc5c(c4)CCC(N4CCC[C@H]4C)CC5)cc23)ccc2c1OCCNC2=O` (stereo partly drawn) [Example 41, 9-Methyl-8-(5-{7-[(2R)-2-methylpyrrolidin-1-yl]-6,7,8,9-tetrahydro-5H-benzo[7]annulen-2-yl}-1H-pyrazolo[3,4-b]pyridin-3-yl)-2,3,4,5-tetrahydro-1,4-benzoxazepin-5-one], the IC50 on recombinant human MER is 100 to 1000 nM; on recombinant human TYRO3, below 100 nM.

Take `O=C1NCCOc2cc(-c3n[nH]c4ncc(-c5ccc6c(c5)CCC(NC5CCCC5)CC6)cc34)ccc21` (stereo not drawn) [Example 42, 8-{5-[7-(Cyclopentylamino)-6,7,8,9-tetrahydro-5H-benzo[7]annulen-2-yl]-1H-pyrazolo[3,4-b]pyridin-3-yl}-2,3,4,5-tetrahydro-1,4-benzoxazepin-5-one]: the IC50 on recombinant human MER and at recombinant human TYRO3 was below 100 nM each time.

These data come from patent publication US20240226115A1, “AXL INHIBITOR COMPOUNDS” (ARCUS BIOSCIENCES, INC., priority 2021, published 2024).
